What was measured:
HEK 293 cells = experiment: MTT cell viability, HEK 293; assay type: cell-based; conditions: Homo sapiens, HEK293; HEK-293, MTT test
Protocol: (§1) The effect of the hydroxamic acids on the viability of cells obtained from human embryonic kidneys, HEK 293, as well as the native form of human neuroblastoma, SH-SY5Y, was evaluated in the MTT test. Using a multifunctional flatbed analyzer, Cytation™3 (BioTek Instruments, Inc., Winooski, VT, USA), the optical density was determined at a wavelength of 530 nm. Based on the dose-dependent curves, the concentration values leading to 50% inhibition of cell population growth (IC50) were calculated.
(§2) Due to the fact that most compounds of the class of hydroxamic acids have high cytotoxic activity and are mainly used as anticancer drugs, their use as neuroprotective drugs is limited. Since the goal of our work was to search for agents for the pharmacological correction of neurodegenerative diseases, a necessary part of the biological activity study of the synthesized hydroxamic acids was to determine their effect on the survival of cell cultures. In our work, we used neuron-like neuroblastoma cells SH-SY5Y and a healthy cell line isolated from the human embryonic kidney, HEK 293.

SH-SY5Y cells = experiment: MTT cell viability, SH-SY5Y; assay type: cell-based; conditions: Homo sapiens, MTT test
Protocol: as §1, §2

[1] = DPPH test of antiradical activity; conditions: substances at 100 μM, mean ± SEM
Protocol: The DPPH test was used to examine antiradical activity based on the ability of a stable chromogen radical of 2,2-diphenyl-1-picrylhydrazyl (DPPH) to remove a hydrogen atom, which is accompanied by a change in the absorption maximum in the electronic absorption spectra. The amount of reduced DPPH was measured using a Cytation ™ 3 multifunctional plate analyzer (BioTek Instruments, Inc., Winooski, VT, USA) at a wavelength of 517 nm.
The antiradical activity of the test compounds was evaluated by the DPPH test, based on the ability of antioxidants to donate an electron to the stable chromogen radical DPPH, converting it into a nonradical form and neutralizing its activity. […] The chromogenic free radical DPPH used in this test has a large size, and substances even with a similar chemical structure may have different antiradical properties due to spatially difficult access.

[2] = system: lipid peroxidation (LPO) of rat brain homogenate; experiment: Lipid peroxidation (LPO) of rat brain homogenate, TBARS test; assay type: biochemical; conditions: substances at 100 μM, mean ± SEM; for % of Activity, Inhibition of LPO, Fe (II): Fe (II)-induced; for % of Activity, Inhibition of LPO, t-BHP: t-BHP-induced
Protocol: To obtain the brain homogenate, rats preliminarily anesthetized with CO2 were decapitated with a guillotine. The brain was homogenized in a buffer containing KCl (120 mM) and HEPES (20 mM), pH = 7.4 at 4 °C, and centrifuged at 1500 rpm to obtain a supernatant. The protein was quantified according to the standard microbiuret method.
To investigate the effect of the compounds on lipid peroxidation (LPO) of rat brain homogenate, we used the modified version of the TBARS test, which is based on the reaction of 2-thiobarbituric acid with the end LPO product—malonic dialdehyde (MDA). The plate well, according to the experimental scheme, contained the compounds under study (100 μM), rat brain homogenate (2 mg/mL), as well as ferrous iron ions ([…]) at a concentration of 500 μM and 1.6 mM tert-butyl hydroxyperoxide as an initiator. After 30 min of incubation at 37 °C, TBARS reagent was added to all samples, incubated for 90 min at 90 °C, and centrifuged at 6000 rpm for 15 min. The optical density of the selected supernatant was measured on a Victor 3 plate reader (Perkin Elmer) at λ = 540 nm.
A rat brain homogenate preparation containing fragments of cell membranes was used as a model system to investigate the antioxidant activity of the hydroxamic acids. To initiate the process of lipid peroxidation, ferrous ions were used to trigger the Fenton reaction, during which the iron valence changes and a highly reactive hydroxyl radical is formed, and tert-butyl hydroxyperoxide as a direct source of free radicals.

HDAC6 = molecular target: T1, HDAC6 (Homo sapiens, UniProt Q9UBN7); experiment: HDAC6 enzyme activity, FLUOR DE LYS fluorometric kit; assay type: biochemical; conditions: mean ± SEM; read-out: IC50 HDAC6 Inhibitory Activity
T1 construct: purchased Enzo Life Sciences (Enzo Biochem, New York, NY, USA)
T1 sequence (Q9UBN7 1-1215): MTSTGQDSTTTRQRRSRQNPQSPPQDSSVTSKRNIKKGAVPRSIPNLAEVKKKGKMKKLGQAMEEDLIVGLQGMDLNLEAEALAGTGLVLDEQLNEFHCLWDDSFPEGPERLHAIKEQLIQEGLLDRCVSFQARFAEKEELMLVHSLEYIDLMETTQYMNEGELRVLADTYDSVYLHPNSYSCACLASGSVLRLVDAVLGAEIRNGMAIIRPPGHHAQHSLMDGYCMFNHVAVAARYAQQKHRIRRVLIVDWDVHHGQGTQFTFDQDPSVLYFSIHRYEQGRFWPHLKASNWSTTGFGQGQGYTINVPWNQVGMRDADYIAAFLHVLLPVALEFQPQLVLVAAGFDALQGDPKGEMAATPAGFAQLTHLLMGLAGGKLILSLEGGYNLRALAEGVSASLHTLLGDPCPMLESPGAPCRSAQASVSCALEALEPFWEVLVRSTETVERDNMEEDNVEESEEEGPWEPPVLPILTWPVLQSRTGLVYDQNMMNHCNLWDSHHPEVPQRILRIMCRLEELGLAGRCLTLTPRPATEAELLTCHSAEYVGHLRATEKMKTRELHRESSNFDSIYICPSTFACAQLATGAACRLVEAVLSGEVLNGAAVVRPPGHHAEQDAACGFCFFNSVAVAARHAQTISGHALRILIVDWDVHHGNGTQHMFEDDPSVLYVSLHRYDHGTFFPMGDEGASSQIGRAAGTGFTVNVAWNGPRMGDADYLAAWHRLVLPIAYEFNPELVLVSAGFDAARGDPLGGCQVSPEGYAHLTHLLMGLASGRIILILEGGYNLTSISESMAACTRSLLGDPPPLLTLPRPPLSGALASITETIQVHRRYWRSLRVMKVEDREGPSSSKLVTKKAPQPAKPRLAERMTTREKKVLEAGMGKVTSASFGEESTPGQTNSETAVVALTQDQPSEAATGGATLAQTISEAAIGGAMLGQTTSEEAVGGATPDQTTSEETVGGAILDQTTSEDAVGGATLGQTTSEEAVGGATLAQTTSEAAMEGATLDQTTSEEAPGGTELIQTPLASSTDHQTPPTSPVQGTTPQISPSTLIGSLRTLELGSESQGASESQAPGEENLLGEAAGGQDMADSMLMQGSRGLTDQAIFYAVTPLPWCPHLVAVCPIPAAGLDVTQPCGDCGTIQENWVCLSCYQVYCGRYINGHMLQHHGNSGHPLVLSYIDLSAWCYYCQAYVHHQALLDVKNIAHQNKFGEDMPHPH

| Structure (SMILES) | IC50 (HEK 293 cells) | IC50 (SH-SY5Y cells) | % of Activity, Antiradical Activity [1] | % of Activity, Inhibition of LPO, Fe (II) [2] | % of Activity, Inhibition of LPO, t-BHP [2] | melting point | IC50 (HDAC6) |
| --- | --- | --- | --- | --- | --- | --- | --- |
| O=C(NO)C12CC3CC(CC(C3)C1)C2 [compound 1, N-Hydroxyadamantane-1-Carboxamide] | > 100 µM | > 100 µM | - (The ‘-’ mark indicates the lack of activity of the test substances (≤10%) in a particular test) | - (The ‘-’ mark indicates the lack of activity of the test substances (≤10%) in a particular test) | - (The ‘-’ mark indicates the lack of activity of the test substances (≤10%) in a particular test) | 149 to 149.3 °C | – |
| O=C(NO)C1C2CC3CC(C2)CC1C3 (stereo not drawn) [compound 2, N-Hydroxyadamantane-2-Carboxamide] | > 100 µM | > 100 µM | 32.02 ± 3.33% | - (The ‘-’ mark indicates the lack of activity of the test substances (≤10%) in a particular test) | - (The ‘-’ mark indicates the lack of activity of the test substances (≤10%) in a particular test) | 173.4 °C | – |
| CC1(C)[C@@H]2CC[C@@]1(C)[C@H](NC(=O)CCCCCCCC(=O)NO)C2 [compound 12, N^1-Hydroxy-N^9-((1R,2R,4R)-1,7,7-Trimethylbicyclo [2.2.1]heptan-2-yl)nonanediamide] | > 100 µM | > 100 µM | - (The ‘-’ mark indicates the lack of activity of the test substances (≤10%) in a particular test) | 44.02 ± 1.57% | 30.36 ± 1.98% | 50.4 °C | 4.06 ± 0.48 µM |
| CC1(C)[C@@H]2CC[C@@]1(C)[C@H](NC(=O)CCCCCCC(=O)NO)C2 [compound 11, N^1-Hydroxy-N^8-((1R,2R,4R)-1,7,7-Trimethylbicyclo [2.2.1]heptan-2-yl)octanediamide] | > 100 µM | 51.9 ± 3.56 µM | 22.22 ± 1.40% | 28.39 ±7.41% | 35.96 ± 1.99% | 94.8 °C | 0.69 ± 0.02 µM |
| CC(/C=C/C(=O)NO)=C\[C@@H](C)C(=O)c1ccc(N(C)C)cc1 [Trich. A, Trichostatin A, reference compound] | – | – | - (The ‘-’ mark indicates the lack of activity of the test substances (≤10%) in a particular test) | - (The ‘-’ mark indicates the lack of activity of the test substances (≤10%) in a particular test) | - (The ‘-’ mark indicates the lack of activity of the test substances (≤10%) in a particular test) | – | – |
| CC1(C)[C@H]2CC[C@](C)(C2)[C@H]1NC(=O)CCCCCCCC(=O)NO [compound 14, N^1-Hydroxy-N^9-((1R,2R,4S)-1,3,3-Trimethylbicyclo[2.2.1]heptan-2-yl)nonanediamide] | > 100 µM | > 100 µM | - (The ‘-’ mark indicates the lack of activity of the test substances (≤10%) in a particular test) | 37.91 ± 1.08% | 22.62 ± 4.31% | 44.9 °C | 4.48 ± 0.13 µM |
| Cc1c(C)c2c(c(C)c1O)CCC(C)(C(=O)O)O2 (stereo not drawn) [Trolox, reference compound] | – | – | – | 97.21 ± 4.09% | 99.11 ± 3.72% | – | – |
| CC1(C)[C@H]2CC[C@](C)(C2)[C@H]1NC(=O)CCCCCCC(=O)NO [compound 13, N^1-Hydroxy-N^8-((1R,2R,4S)-1,3,3-Trimethylbicyclo[2.2.1]heptan-2-yl)octanediamide] | > 100 µM | > 100 µM | - (The ‘-’ mark indicates the lack of activity of the test substances (≤10%) in a particular test) | 28.90 ± 3.38% | 24.02 ± 3.44% | 45.1 °C | 9.44 ± 0.74 µM |

From PMC8623418, “Novel Multitarget Hydroxamic Acids with a Natural Origin CAP Group against Alzheimer’s Disease: Synthesis, Docking and Biological Evaluation” (Pharmaceutics, 2021)
